Experimental findings from patent US6191135A, “Neurokinin antagonists” (Boehringer Ingelheim KG, priority 1994, dated 2001) are described below.

In general, Ki refers to the dissociation constant of the complex between target and ligand, obtained from inhibition or displacement.

The target of this test is T1, NK1 -receptor (substance P-receptor) (Homo sapiens, UniProt P25103).
T1 construct: intact human lymphoblastoma cells (IM-9) which express NK1 -receptors; endogenous in cells; host or cells: IM-9 human lymphoblastoma cells
T1 sequence (P25103 whole entry): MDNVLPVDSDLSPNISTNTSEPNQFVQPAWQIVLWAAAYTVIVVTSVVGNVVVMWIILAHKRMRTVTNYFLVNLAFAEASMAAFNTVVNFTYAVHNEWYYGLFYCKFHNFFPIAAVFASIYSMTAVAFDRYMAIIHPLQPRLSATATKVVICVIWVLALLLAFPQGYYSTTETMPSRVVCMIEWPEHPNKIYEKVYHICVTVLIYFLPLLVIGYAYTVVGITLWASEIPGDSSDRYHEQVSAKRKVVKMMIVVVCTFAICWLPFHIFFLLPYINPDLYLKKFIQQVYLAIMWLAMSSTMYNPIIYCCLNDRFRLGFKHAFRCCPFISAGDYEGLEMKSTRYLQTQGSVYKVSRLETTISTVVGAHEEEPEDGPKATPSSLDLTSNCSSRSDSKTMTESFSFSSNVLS
The test can be described thus: NK1-receptor affinity: displacement of 125I labelled substance P on intact human lymphoblastoma cells (IM-9). The test is classed as binding. The conditions noted are these: intact human lymphoblastoma cells (IM-9) expressing NK1-receptors, read-out: Ki. As for the experimental part:
The receptor affinity for the NK1 -receptor (substance P-receptor) was determined on intact human lymphoblastoma cells (IM-9) which express NK1 -receptors, and the displacement of ^125 I labelled substance P was measured.
(In a radioligand displacement assay an active substance lowers the binding of a labelled ligand.)
As for `FC(F)(F)c1cc(CNCC(c2ccccc2)N2CCN(C3CCCCC3)CC2)cc(C(F)(F)F)c1` (stereo not drawn) [Example 36, 3,5-Bistrifluoromethylbenzyl-[2-phenyl-2-(4-cyclohexylpiperazine-1-yl)-ethyl]-amine], the Ki was found to be 18 nM.
For `COc1ccccc1C(CNC(=O)Nc1cc(C(F)(F)F)cc(C(F)(F)F)c1)N1CCN(CCc2ccccc2)CC1` (stereo not drawn) [Example 150, N-3,5-Bistrifluoromethyl-phenyl-phenyl-N'-[2-(2-methoxyphenyl-2-(4-2-phenylethyl)-piperazine-1-yl)-ethyl]-urea] the value was 717 nM; for `COc1ccccc1C(CNC(=O)Nc1cc(C(F)(F)F)cc(C(F)(F)F)c1)N1CCN(C2CCCC2)CC1` (stereo not drawn) [Example 111, N-3,5-Bistrifluoromethylphenyl-N'-[2-(2-methoxyphenyl)-2-(4-cyclopentylpiperazine-1-yl)-ethyl]-urea], 12 nM; for `COc1ccccc1C(CNCCc1cc(C(F)(F)F)cc(C(F)(F)F)c1)N1CCCCC1` (stereo not drawn) [Example 79, 2-(3,5-Bistrifluoromethylphenyl)-2'-(2-methoxyphenyl)-2'-piperidine-1-yl-diethylamine], 46 nM.
For `COc1ccccc1C(CNC(=O)Nc1cc(C(F)(F)F)cc(C(F)(F)F)c1)N1CCN(c2ccccc2)CC1` (stereo not drawn) [Example 142] the value was 650 nM; for `O=C(NCC(c1ccccc1)N1CCN(C2CCCCC2)CC1)Nc1ccccc1Cl` (stereo not drawn) [Example 113, N-2-Chlorophenyl-N'-[2-phenyl-2-(4-cyclohexylpiperazine-1-yl)-ethyl]-urea], 403 nM.
The same measure for `COc1ccccc1C(CNCc1cc(C(F)(F)F)cc(C(F)(F)F)c1)N1CCN(CCO)CC1` (stereo not drawn) [Example 57, 3,5-Bistrifluoromethylbenzyl-[2-(2-methoxyphenyl)-2-(4-(2-hydroxyethyl)-piperazine-1-yl)-ethyl]-amine]: 64 nM; for `COc1ccccc1C(CNCc1cc(C(F)(F)F)cc(C(F)(F)F)c1)N1CCN(c2cccc(C)c2C)CC1` (stereo not drawn) [Example 20, 3,5-Bistrifluoromethylbenzyl-[2-(2-methoxyphenyl)-2-(4-(2,3-dimethylphenyl)-piperazine-1-yl)-ethyl]-amine]: 520 nM; for `COc1ccccc1C(CNC(=O)Nc1cc(C(F)(F)F)cc(C(F)(F)F)c1)N1CCN(C2CCCCC2)CC1` (stereo not drawn) [Example 116, N-3,5-Bistrifluoromethylphenyl-N'-[2-(2-methoxyphenyl)-2-(4-cyclohexylpiperazine-1-yl)-ethyl]-urea]: 24 nM.
Regarding `COc1ccccc1C(CNC(=O)Nc1cc(C(F)(F)F)cc(C(F)(F)F)c1)N1CCC(Cc2ccccc2)CC1` (stereo not drawn) [Example 175, N-3,5-Bistrifluoromethylphenyl-N'-[2-(2-methoxyphenyl)-2-(4-benzylpiperidin-1-yl)-ethyl]-urea], the Ki was found to be 230 nM.
As for `COc1ccccc1C(CNC(=O)Cc1ccccc1C(F)(F)F)N1CCN(C2CCCCC2)CC1` (stereo not drawn) [Example 64, N-[2-(2-Methoxyphenyl)-2-(4-cyclohexylpiperazine-1-yl)-ethyl]-2-(2-trifluoromethylphenyl)-acetamide], the Ki was found to be 273 nM.
The same measure for `COc1ccccc1C(CNC(=O)c1cc(C(F)(F)F)cc(C(F)(F)F)c1)N1CCN(C2CCCCC2)CC1` (stereo not drawn) [Example 58, N-[2-(2-Methoxyphenyl)-2-(4-cyclohexylpiperazine-1-yl)-ethyl]-3,5-bistrifluoromethylbenzamide]: 23 nM; for `COc1ccccc1C(CNCc1cc(C(F)(F)F)cc(C(F)(F)F)c1)N1CCC(N2CCCCC2)CC1` (stereo not drawn) [Example 91]: 2 nM.
Regarding `COc1ccccc1C(CNCc1cc(C(F)(F)F)cc(C(F)(F)F)c1)N1CCN(CCC2CCCCC2)CC1` (stereo not drawn) [Example 54, 3,5-Bistrifluoromethylbenzyl-[2-(2-methoxyphenyl)-2-(4-(2-cyclohexylethyl)-piperazine-1-yl)-ethyl]-amine], the inhibition constant (Ki) worked out at 20 nM.
The same measure for `COc1ccccc1C(CNCc1cc(C(F)(F)F)cc(C(F)(F)F)c1)N1CCN(Cc2ccc3c(c2)OCO3)CC1` (stereo not drawn) [Example 27, 3,5-Bistrifluoromethylbenzyl-[2-(2-methoxyphenyl)-2-(4-(3,4-methylenedioxybenzyl)-piperazine-1-yl)-ethyl]-amine]: 111 nM; for `COc1ccccc1C(CNCc1cc(C(F)(F)F)cc(C(F)(F)F)c1)N1CCN(c2ccccn2)CC1` (stereo not drawn) [Example 28, 3,5-Bistrifluoromethylbenzyl-[2-(2-methoxyphenyl)-2-(4-(2-pyridyl)-piperazine-1-yl)-ethyl]-amine]: 102 nM; for `COc1ccccc1C(CNCc1cc(C(F)(F)F)cc(C(F)(F)F)c1)N1CCN(C2CCCCC2)CC1` (stereo not drawn) [Example 39, 3,5-Bistrifluoromethylbenzyl-[2-(2-methoxyphenyl)-2-(4-cyclohexylpiperazine-1-yl)-ethyl]-amine]: 16 nM.
The same measure for `COc1ccccc1C(CNC(=O)Nc1cc(C(F)(F)F)cc(C(F)(F)F)c1)N1CCN(C(C)C)CC1` (stereo not drawn) [Example 110, N-3,5-Bistrifluoromethylphenyl-N'-[2-(2-methoxyphenyl)-2-(4-(2-propyl)piperazin-1-yl)-ethyl]-urea]: 28 nM; for `COc1ccccc1C(CNC(=O)Nc1cc(C(F)(F)F)cc(C(F)(F)F)c1)N1CC(C)CC(C)C1` (stereo not drawn) [Example 172]: 173 nM.
For `COc1ccccc1C(CNC(=O)Nc1cc(C(F)(F)F)cc(C(F)(F)F)c1)N1CCC(N2CCCCC2)CC1` (stereo not drawn) [Example 177, N-3,5-Bistrifluoromethylphenyl-N'-[2-(2-methoxyphenyl)-2-(4-piperidin-1-yl)-piperidin-1-yl-ethyl]-urea] the value was 10 nM.
Consider `COc1ccccc1C(CNC(=O)Nc1cc(C(F)(F)F)cc(C(F)(F)F)c1)N1CCCCC1` (stereo not drawn) [Example 166], for which the Ki worked out at 150 nM.
For `CN1CCN(C(CNCc2cc(C(F)(F)F)cc(C(F)(F)F)c2)c2ccccc2)CC1` (stereo not drawn) [Example 30, 3,5-Bistrifluoromethylbenzyl-[2-phenyl-2-(4-methylperazine-1-yl)-ethyl]-amine] the value was 90 nM; for `COc1ccccc1C(CNCCc1cc(C(F)(F)F)cc(C(F)(F)F)c1)N1CCN(C2CCCCCC2)CC1` (stereo not drawn) [Example 69, 2-(3,5-Bistrifluoromethylphenyl)-2'-(2-methoxyphenyl)-2'-(4-cycloheptylpiperazine-1-yl)-diethylamine], 16 nM.
For `COc1ccccc1C(CNCc1cc(C(F)(F)F)cc(C(F)(F)F)c1)N1CCC(C2CCCCC2)CC1` (stereo not drawn) [Example 89, 3,5-Bistrifluoromethylbenzyl-[2-(2-methoxyphenyl)-2-(4-cyclohexylpiperidine-1-yl)-ethyl]-amine] the value was 80 nM; for `COc1ccccc1C(CNCc1cc(C(F)(F)F)cc(C(F)(F)F)c1)N1CCC(c2c[nH]c3ccccc23)CC1` (stereo not drawn) [Example 97, 3,5-Bistrifluoromethylbenzyl-(2-(2-methoxyphenyl)-2-(4-(3-indolyl)-piperidine-1-yl)-ethyl]-amine], 300 nM; for `O=C(NCC(c1ccc(Cl)c(Cl)c1)N1CCN(C2CCCCC2)CC1)Nc1cc(C(F)(F)F)cc(C(F)(F)F)c1` (stereo not drawn) [Example 117, N-3,5-Bistrifluoromethylphenyl-N'-[2-(3,4-dichlorophenyl)-2-(4-cyclohexylpiperazine-1-yl)-ethyl]-urea], 15 nM.
Regarding `O=C(NCC(c1ccccc1)N1CCN(Cc2ccccc2)CC1)Nc1cc(C(F)(F)F)cc(C(F)(F)F)c1` (stereo not drawn) [Example 146], the Ki stood at 115 nM.
The same measure for `CCCN1CCN(C(CNC(=O)Nc2cc(C(F)(F)F)cc(C(F)(F)F)c2)c2ccccc2OC)CC1` (stereo not drawn) [Example 108, N-3,5-Bistrifluoromethylphenyl-N'-[2-(2-methoxyphenyl)-2-(4-(1-propyl)piperazine-1-yl)-ethyl]-urea]: 34 nM; for `COc1ccccc1C(CNC(=O)Nc1cc(C(F)(F)F)cc(C(F)(F)F)c1)N1C2CCCC1CC2` (stereo not drawn) [Example 176, N-3,5-Bistrifluoromethylphenyl-N'-[2-(2-methoxyphenyl)-2-(nortropan-8-yl)-ethyl]-urea]: 92 nM.
For `COc1ccccc1C(CNC(=O)c1cc(C(F)(F)F)cc(C(F)(F)F)c1)N1CCN(C2CCCCC2)CC1` (stereo not drawn) [Example 67, N-[2-(2-Methoxyphenyl)-2-(4-cyclohexylpiperazine-1-yl)-ethyl]-3,5-bistrifluoromethylbenzamide] the value was 14 nM; for `COc1ccccc1C(CNC(=O)Cc1cc(C(F)(F)F)cc(C(F)(F)F)c1)N1CCN(C2CCCCCC2)CC1` (stereo not drawn) [Example 68, N-[2-(2-Methoxyphenyl)-2-(4-cycloheptylpiperazine-1-yl)-ethyl]-2-(3,5-bistrifluoromethyl-phenyl)-acetamide], 3 nM; for `COc1ccccc1C(CNCc1cc(C(F)(F)F)cc(C(F)(F)F)c1)N1CCCCC1C` (stereo not drawn) [Example 80, 3,5-Bistrifluoromethylbenzyl-[2-(2-methoxyphenyl)-2-(2-methylpiperidine-1-yl)-ethyl]-amine], 43 nM.
Consider `COc1ccccc1C(CNCc1cc(C(F)(F)F)cc(C(F)(F)F)c1)N1CCN(c2ccccc2C)CC1` (stereo not drawn) [Example 19, 3,5-Bistrifluoromethylbenzyl-[2-(2-methoxyphenyl)-2-(4-(2-methylphenyl)-piperazine-1-yl)-ethyl]-amine], for which the Ki amounted to 580 nM.
For `COc1ccccc1C(CNC(=O)Nc1cc(C(F)(F)F)cc(C(F)(F)F)c1)N1CCN(C)CC1` (stereo not drawn) [Example 107, N-3,5-Bistrifluoromethylphenyl-N'-[2-(2-methoxyphenyl)-2-(4-methylpiperazin-1-yl)-ethyl]-urea] the value was 250 nM; for `COc1ccccc1C(CNC(=O)Nc1cc(C(F)(F)F)cc(C(F)(F)F)c1)N1CCC(C2CCCCC2)CC1` (stereo not drawn) [Example 171, N-3,5-Bistrifluoromethylphenyl-N'-[2-(2-methoxyphenyl)-2-(4-cyclohexylpiperidin-1-yl)-ethyl]-urea], 898 nM; for `COc1ccccc1C(CNCc1cc(C(F)(F)F)cc(C(F)(F)F)c1)N1CCN(C(C)c2ccccc2)CC1` (stereo not drawn) [Example 23, 3,5-Bistrifluoromethylbenzyl-[2-(2-methoxyphenyl)-2-(4-(1-phenylethyl)-piperazine-1-yl)-ethyl]-amine], 108 nM.
